From ChEMBL document CHEMBL3217689, “Synthesis and antiplasmodial evaluation of aziridine(iso)quinoline hybrids and their ring-opening products” (Medchemcomm, 2013)

Columns and labels:
Plasmodium falciparum [1] = assay: Antiplasmodial activity against chloroquine-sensitive Plasmodium falciparum NF54 by LDH assay; type: functional, organism-based
[2] = Selectivity index, ratio of IC50 for CHO cells to IC50 for chloroquine-sensitive Plasmodium falciparum NF54; type: toxicity, cell-based; conditions: hamster; read-out: Ratio IC50
CHO = assay: Cytotoxicity against CHO cells by MTT assay; type: cell-based; conditions: Cricetulus griseus
Plasmodium falciparum [3] = assay: Antiplasmodial activity against chloroquine-resistant Plasmodium falciparum Dd2 by LDH assay; type: functional, organism-based
[4] = Resistance index, ratio of IC50 for chloroquine-resistant Plasmodium falciparum Dd2 to IC50 for chloroquine-sensitive Plasmodium falciparum NF54

Compound | IC50 (Plasmodium falciparum [1]) [µM] | also measured
O=c1c(Cl)c(Cl)cnn1CC1CN1Cc1cc2ccccc2nc1Cl (configuration not stated) | 22.8 | 
O=c1c(Cl)c(Cl)cnn1CC1CN1Cc1cnc2ccccc2c1 (configuration not stated) | 12.7 | 
BrC(COc1cccc2c[n+](Cc3ccccc3)ccc12)CN(Cc1ccccc1)Cc1ccccc1.[Br-] (configuration not stated) | 0.22 | selectivity ratio [2]: 205; IC50 (CHO): 45.1 µM; IC50 (Plasmodium falciparum [3]): 1.17 µM; Ratio IC50 [4]: 5.32
C[C@H]1[C@H](OC(=O)CCC(=O)O)O[C@@H]2O[C@@]3(C)CC[C@H]4[C@H](C)CC[C@@H]1[C@@]24OO3 [ARTESUNATE] | 0.02 | 
Clc1ccccc1CN1CC1COc1cccc2cnccc12 (configuration not stated) | 12.9 | 
OCC(COc1cccc2cnccc12)NCc1ccc(Cl)cc1Cl (configuration not stated) | > 26.5 | 
COCC(COc1cccc2cnccc12)NCc1ccccc1OC (configuration not stated) | > 28.4 | 
COc1ccccc1CN1CC1COc1cccc2cnccc12 (configuration not stated) | 5.29 | selectivity ratio [2]: 9.88; IC50 (CHO): 52.3 µM; IC50 (Plasmodium falciparum [3]): 8.46 µM; Ratio IC50 [4]: 1.6
Cn1nc(C(F)(F)F)cc1OCC1CN1Cc1ccnc2ccccc12 (configuration not stated) | 9.66 | 
O=c1nc(C(F)(F)F)ccn1CC1CN1Cc1cc2ccccc2nc1Cl (configuration not stated) | 9.12 | 
COc1ccc(CN2CC2COc2cccc3cnccc23)cc1 (configuration not stated) | 9.99 | 
Cn1nc(C(F)(F)F)cc1OCC1CN1Cc1cnc2ccccc2c1 (configuration not stated) | > 27.6 | 
Cn1nc(C(F)(F)F)cc1OCC(CO)NCc1cnc2ccccc2c1 (configuration not stated) | 4.73 | selectivity ratio [2]: 38.3; IC50 (CHO): 181 µM; IC50 (Plasmodium falciparum [3]): 15.2 µM
COCC(Cn1ncc(Cl)c(Cl)c1=O)NCc1ccnc2ccccc12 (configuration not stated) | 14.5 | 
O=c1c(Cl)c(Cl)cnn1CC1CN1Cc1ccnc2ccccc12 (configuration not stated) | 26.9 | 
OCC(COc1cccc2cnccc12)NCc1ccc(C(F)(F)F)cc1 (configuration not stated) | 11.7 | 
Clc1ccc(CN2CC2COc2cccc3cnccc23)cc1 (configuration not stated) | > 30.8 | 
O=c1nc(C(F)(F)F)ccn1CC1CN1Cc1cnc2ccccc2c1 (configuration not stated) | > 27.8 | 
COCC(COc1cc(C(F)(F)F)nn1C)NCc1cc2ccccc2nc1Cl (configuration not stated) | 17 | 
c1ccc(CNC(CNc2ccccc2)COc2cccc3cnccc23)cc1 (configuration not stated) | 4.69 | selectivity ratio [2]: 50.5; IC50 (CHO): 237 µM; IC50 (Plasmodium falciparum [3]): 8.21 µM; Ratio IC50 [4]: 1.75

Compound | IC50 (Plasmodium falciparum [1]) [µM] | also measured
Cn1nc(C(F)(F)F)cc1OCC1CN1Cc1cc2ccccc2nc1Cl (configuration not stated) | > 25.2 | 
COCC(COc1cc(C(F)(F)F)nn1C)NCc1cc2ccccc2nc1OC (configuration not stated) | > 23.6 | 
Cn1nc(C(F)(F)F)cc1OCC(CO)NCc1cc2ccccc2nc1Cl (configuration not stated) | > 24.1 | 
COCC(COc1cccc2cnccc12)NCc1ccccc1Cl (configuration not stated) | 16.5 | 
COCC(COc1cccc2cnccc12)NCc1ccc(OC)cc1 (configuration not stated) | > 28.4 | 
COCC(COc1cccc2cnccc12)NCc1ccccc1 (configuration not stated) | 13 | 
O=c1c(Cl)c(Cl)cnn1CC(CO)NCc1ccnc2ccccc12 (configuration not stated) | 24.5 | 
[Br-].c1ccc(CN2CC2COc2cccc3c[n+](Cc4ccccc4)ccc23)cc1 (configuration not stated) | 1.09 | selectivity ratio [2]: 47.7; IC50 (CHO): 51.8 µM; IC50 (Plasmodium falciparum [3]): 1.02 µM; Ratio IC50 [4]: 0.94
c1ccc(CN2CC2COc2cccc3cnccc23)cc1 (configuration not stated) | 9.99 | 
O=c1c(Cl)c(Cl)cnn1CC(CO)NCc1cnc2ccccc2c1 (configuration not stated) | 15.3 | 
Fc1ccc(CN2CC2COc2cccc3cnccc23)cc1 (configuration not stated) | 15.9 | 
OCC(COc1cccc2cnccc12)NCc1ccccc1 (configuration not stated) | 6.81 | selectivity ratio [2]: 21.8; IC50 (CHO): 148 µM; IC50 (Plasmodium falciparum [3]): 17.6 µM; Ratio IC50 [4]: 2.58
Clc1ccc(CNC(CNc2ccccc2)COc2cccc3cnccc23)cc1 (configuration not stated) | 10.5 | 
O=c1c(Cl)c(Cl)cnn1CC(CO)NCc1cc2ccccc2nc1Cl (configuration not stated) | 15 | 
OCC(COc1cccc2cnccc12)NCc1ccc(Cl)cc1 (configuration not stated) | 22.8 | 
Clc1ccc(CN2CC2COc2cccc3cnccc23)c(Cl)c1 (configuration not stated) | > 27.8 | 
COCC(COc1cccc2cnccc12)NCc1ccc(F)cc1 (configuration not stated) | 24.4 | 
CC[C@H]1CN2CCc3cc(OC)c(OC)cc3[C@@H]2C[C@@H]1C[C@H]1NCCc2cc(OC)c(OC)cc21 [EMETINE] |  | IC50 (CHO): 0.4 µM
FC(F)(F)c1ccc(CN2CC2COc2cccc3cnccc23)cc1 (configuration not stated) | > 27.9 | 
